Test results taken from patent publication US9580423B2, “Bicyclic heterocycles as FGFR4 inhibitors” (Incyte Corporation, priority 2015, dated 2017).
Where two headings read alike, the source gives them in different places.

Assays:
FGFR4 = FGFR4 (Homo sapiens (Human), UniProt P22455); experiment: FGFR Enzymatic Assay (FRET peptide phosphorylation), FGFR4; settings: for FGFR1/FGFR4 IC50 ratio / FGFR2/FGFR4 IC50 ratio / FGFR3/FGFR4 IC50 ratio: IC50 ratio showing FGFR4 selectivity
From the text: (§1) The enzymes were purchased from Millipore or Invitrogen.
(§2) GraphPad prism3 was used to analyze the data. The IC50 values were derived by fitting the data to the equation for a sigmoidal dose-response with a variable slope. Y=Bottom+(Top-Bottom)/(1+10^((LogIC50−X)*HillSlope)) where X is the logarithm of concentration and Y is the response.

FGFR3 = FGFR3 (Homo sapiens (Human), UniProt P22607); experiment: FGFR Enzymatic Assay (FRET peptide phosphorylation), FGFR3
From the text: as §1, §2

FGFR2 = FGFR2 (Homo sapiens (Human), UniProt P21802); experiment: FGFR Enzymatic Assay (FRET peptide phosphorylation), FGFR2
From the text: as §1, §2

FGFR1 = FGFR1 (Homo sapiens (Human), UniProt P11362); experiment: FGFR Enzymatic Assay (FRET peptide phosphorylation), FGFR1; settings: read-out: FGFR1 IC50
From the text: as §1, §2

[1] = read-out: FGFR4 IC50, pre-incubated for 4 hours
[2] = read-out: FGFR3 IC50, pre-incubated for 4 hours
[3] = read-out: FGFR2 IC50, pre-incubated for 4 hours
[4] = pre-incubated for 5 to 10 minutes
[5] = read-out: FGFR4 IC50, pre-incubated for 5 to 10 minutes
[6] = read-out: FGFR3 IC50, pre-incubated for 5 to 10 minutes
[7] = read-out: FGFR2 IC50, pre-incubated for 5 to 10 minutes

Sequence of FGFR4 (P22455 22-802): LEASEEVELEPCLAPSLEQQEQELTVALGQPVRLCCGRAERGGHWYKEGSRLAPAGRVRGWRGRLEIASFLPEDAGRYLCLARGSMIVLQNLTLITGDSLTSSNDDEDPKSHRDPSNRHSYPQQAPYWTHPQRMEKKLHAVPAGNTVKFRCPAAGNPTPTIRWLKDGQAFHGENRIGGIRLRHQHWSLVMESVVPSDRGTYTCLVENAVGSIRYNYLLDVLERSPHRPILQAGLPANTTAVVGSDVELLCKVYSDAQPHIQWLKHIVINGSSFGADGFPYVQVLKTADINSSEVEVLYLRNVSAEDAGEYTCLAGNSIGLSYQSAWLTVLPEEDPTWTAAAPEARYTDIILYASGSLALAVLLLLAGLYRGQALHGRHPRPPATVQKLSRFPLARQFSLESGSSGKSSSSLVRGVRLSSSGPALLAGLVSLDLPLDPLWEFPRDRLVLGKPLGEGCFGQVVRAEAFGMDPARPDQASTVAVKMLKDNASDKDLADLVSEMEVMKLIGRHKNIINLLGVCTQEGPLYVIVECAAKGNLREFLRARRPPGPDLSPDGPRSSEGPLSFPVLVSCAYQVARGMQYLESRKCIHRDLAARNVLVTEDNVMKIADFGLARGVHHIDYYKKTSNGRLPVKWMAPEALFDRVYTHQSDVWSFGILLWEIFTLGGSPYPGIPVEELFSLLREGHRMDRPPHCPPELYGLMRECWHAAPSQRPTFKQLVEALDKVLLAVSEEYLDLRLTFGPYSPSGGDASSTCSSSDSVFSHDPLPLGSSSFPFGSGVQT
Sequence of FGFR3 (P22607 23-806): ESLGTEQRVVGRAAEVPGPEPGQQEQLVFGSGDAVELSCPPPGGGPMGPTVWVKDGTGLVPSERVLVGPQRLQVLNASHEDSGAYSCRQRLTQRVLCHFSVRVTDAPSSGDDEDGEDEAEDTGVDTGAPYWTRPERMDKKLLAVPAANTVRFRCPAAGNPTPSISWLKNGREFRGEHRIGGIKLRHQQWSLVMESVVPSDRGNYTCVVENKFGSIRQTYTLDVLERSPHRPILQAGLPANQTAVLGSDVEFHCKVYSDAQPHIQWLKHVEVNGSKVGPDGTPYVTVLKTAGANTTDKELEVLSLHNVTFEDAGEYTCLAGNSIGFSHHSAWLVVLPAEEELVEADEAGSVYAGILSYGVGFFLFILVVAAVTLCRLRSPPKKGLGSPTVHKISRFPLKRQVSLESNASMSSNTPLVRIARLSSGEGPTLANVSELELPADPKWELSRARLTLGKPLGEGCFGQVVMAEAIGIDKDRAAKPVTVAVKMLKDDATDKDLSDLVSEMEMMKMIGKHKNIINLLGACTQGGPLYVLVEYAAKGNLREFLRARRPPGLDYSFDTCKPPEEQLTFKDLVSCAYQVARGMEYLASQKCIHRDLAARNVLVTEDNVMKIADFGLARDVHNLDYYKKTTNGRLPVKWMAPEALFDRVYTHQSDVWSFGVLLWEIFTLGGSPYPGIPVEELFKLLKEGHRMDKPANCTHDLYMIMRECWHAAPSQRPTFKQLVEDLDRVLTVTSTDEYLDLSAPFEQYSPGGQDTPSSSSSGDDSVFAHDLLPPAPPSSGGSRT
Sequence of FGFR2 (P21802 22-821): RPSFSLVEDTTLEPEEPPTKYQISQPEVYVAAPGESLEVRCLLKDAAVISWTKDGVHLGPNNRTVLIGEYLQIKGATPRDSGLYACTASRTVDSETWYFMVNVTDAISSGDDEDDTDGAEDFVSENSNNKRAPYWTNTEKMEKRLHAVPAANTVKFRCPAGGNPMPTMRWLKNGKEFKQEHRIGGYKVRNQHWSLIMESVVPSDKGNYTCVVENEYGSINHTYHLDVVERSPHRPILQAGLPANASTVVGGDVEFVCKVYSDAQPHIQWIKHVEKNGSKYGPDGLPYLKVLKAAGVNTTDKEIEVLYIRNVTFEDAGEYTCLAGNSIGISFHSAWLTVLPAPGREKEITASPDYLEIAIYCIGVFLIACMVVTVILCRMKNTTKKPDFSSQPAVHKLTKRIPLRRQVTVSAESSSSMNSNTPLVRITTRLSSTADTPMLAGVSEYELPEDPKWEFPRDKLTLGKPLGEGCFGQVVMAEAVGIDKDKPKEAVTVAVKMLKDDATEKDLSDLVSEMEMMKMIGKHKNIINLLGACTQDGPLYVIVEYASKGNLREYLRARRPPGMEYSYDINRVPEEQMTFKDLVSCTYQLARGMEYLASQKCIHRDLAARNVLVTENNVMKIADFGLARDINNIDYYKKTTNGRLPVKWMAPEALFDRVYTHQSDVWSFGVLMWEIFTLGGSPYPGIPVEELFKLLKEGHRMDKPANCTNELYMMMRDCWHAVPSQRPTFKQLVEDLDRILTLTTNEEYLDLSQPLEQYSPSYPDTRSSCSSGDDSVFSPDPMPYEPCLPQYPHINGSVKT
Sequence of FGFR1 (P11362 22-822): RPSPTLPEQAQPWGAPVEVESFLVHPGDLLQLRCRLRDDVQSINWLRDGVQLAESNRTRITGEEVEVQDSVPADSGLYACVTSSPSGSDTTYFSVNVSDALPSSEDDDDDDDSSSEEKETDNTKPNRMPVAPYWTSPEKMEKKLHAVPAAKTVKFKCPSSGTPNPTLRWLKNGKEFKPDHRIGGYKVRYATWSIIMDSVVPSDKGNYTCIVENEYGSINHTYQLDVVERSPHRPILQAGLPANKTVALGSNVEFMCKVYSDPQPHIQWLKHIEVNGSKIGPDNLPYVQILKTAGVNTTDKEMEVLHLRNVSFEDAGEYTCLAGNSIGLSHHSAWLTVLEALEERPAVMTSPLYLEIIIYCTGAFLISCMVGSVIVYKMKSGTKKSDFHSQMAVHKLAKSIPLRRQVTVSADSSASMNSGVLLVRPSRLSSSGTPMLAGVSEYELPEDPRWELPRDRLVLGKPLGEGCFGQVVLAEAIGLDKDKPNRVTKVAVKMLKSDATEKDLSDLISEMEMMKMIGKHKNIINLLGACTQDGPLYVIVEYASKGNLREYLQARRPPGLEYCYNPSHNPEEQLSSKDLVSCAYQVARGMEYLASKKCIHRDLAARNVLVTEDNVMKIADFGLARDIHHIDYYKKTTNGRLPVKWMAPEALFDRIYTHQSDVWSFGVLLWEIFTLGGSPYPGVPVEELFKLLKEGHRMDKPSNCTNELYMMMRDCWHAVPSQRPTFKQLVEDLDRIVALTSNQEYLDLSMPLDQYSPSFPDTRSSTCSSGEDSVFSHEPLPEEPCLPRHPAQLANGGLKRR

FGFR1/FGFR4 IC50 ratio (FGFR4; pre-incubated for 4 hours) | FGFR2/FGFR4 IC50 ratio (FGFR4; pre-incubated for 4 hours) | FGFR3/FGFR4 IC50 ratio (FGFR4; pre-incubated for 4 hours) | IC50 (FGFR4; [1]) [nM] | IC50 (FGFR3; [2]) [nM] | IC50 (FGFR2; [3]) [nM] | IC50 (FGFR1; pre-incubated for 4 hours) [nM] | FGFR1/FGFR4 IC50 ratio (FGFR4; [4]) | FGFR2/FGFR4 IC50 ratio (FGFR4; [4]) | FGFR3/FGFR4 IC50 ratio (FGFR4; [4]) | IC50 (FGFR4; [5]) [nM] | IC50 (FGFR3; [6]) [nM] | IC50 (FGFR2; [7]) [nM] | IC50 (FGFR1; [4]) [nM] | IC50 (FGFR4) [nM] | IC50 (FGFR3; FGFR3 IC50 (nM), pre-incubated for 5 to 10 minutes) [nM] | IC50 (FGFR3; FGFR3 IC50 (nM), pre-incubated for 4 hours) [nM] | IC50 (FGFR2) [nM] | SMILES
>100 | >100 | >100 | < 10 | > 200 | > 200 | > 200 |  |  |  |  |  |  |  |  |  |  |  | C=CC(=O)Nc1cnn(CCOCC)c1-c1cc2c(cn1)CN(c1c(F)c(OC)cc(OC)c1F)C(=O)C21CC1 [Example 16, N-(5-(2′-(2,6-difluoro-3,5-dimethoxyphenyl)-3′-oxo-2′,3′-dihydro-1′H-spiro[cyclopropane-1,4′-[2,7]naphthyridine]-6′-yl)-1-(2-ethoxyethyl)-1H-pyrazol-4-yl)acrylamide]
>100 | >100 | >100 | < 10 | > 200 | > 200 | > 200 |  |  |  |  |  |  |  |  |  |  |  | C=CC(=O)Nc1cnn(Cc2cnn(C)c2)c1-c1cc2c(cn1)CN(c1c(F)c(OC)cc(OC)c1F)C(=O)C21CC1 [Example 27, N-(5-(2′-(2,6-difluoro-3,5-dimethoxyphenyl)-3′-oxo-2′,3′-dihydro-1′H-spiro[cyclopropane-1,4′-[2,7]naphthyridine]-6′-yl)-1-((1-methyl-1H-pyrazol-4-yl)methyl)-1H-pyrazol-4-yl)acrylamide]
>100 | >100 | >100 | < 10 | > 200 | > 200 | > 200 | >100 | >100 | >100 | < 10 | > 200 | > 200 | > 200 |  |  |  |  | C=CC(=O)Nc1ccc(C#N)c(-c2cc3c(cn2)CN(c2c(F)c(OC)cc(OC)c2F)C(=O)C32CC2)c1 [Example 5, N-(4-cyano-3-(2′-(2,6-difluoro-3,5-dimethoxyphenyl)-3′-oxo-2′,3′-dihydro-1′H-spiro[cyclopropane-1,4′-[2,7]naphthyridine]-6′-yl)phenyl)acrylamide]
>100 | >100 | >100 | < 10 | > 200 | > 200 | > 200 |  |  |  |  |  |  |  |  |  |  |  | C=CC(=O)Nc1cn[nH]c1-c1cc2c(cn1)CN(c1c(F)c(OC)cc(OC)c1F)C(=O)C21CC1 [Example 14, N-(5-(2′-(2,6-difluoro-3,5-dimethoxyphenyl)-3′-oxo-2′,3′-dihydro-1′H-spiro[cyclopropane-1,4′-[2,7]naphthyridine]-6′-yl)-1H-pyrazol-4-yl)acrylamide]
>100 | >100 | >100 | < 10 | > 200 | > 200 | > 200 |  |  |  |  |  |  |  |  |  |  |  | C=CC(=O)Nc1cnn(CCOC)c1-c1cc2c(cn1)CN(c1c(F)c(OC)cc(OC)c1F)C(=O)C21CC1 [Example 15, N-(5-(2′-(2,6-difluoro-3,5-dimethoxyphenyl)-3′-oxo-2′,3′-dihydro-1′H-spiro[cyclopropane-1,4′-[2,7]naphthyridine]-6′-yl)-1-(2-methoxyethyl)-1H-pyrazol-4-yl)acrylamide]
>100 | >100 | >100 | < 10 | > 200 | > 200 | > 200 | >100 | >100 | >100 | < 10 | > 200 | > 200 | > 200 |  |  |  |  | C=CC(=O)Nc1cnc(C)c(-c2cc3c(cn2)CN(c2c(F)c(OC)cc(OC)c2F)C(=O)C32CC2)c1 [Example 7, N-(5-(2′-(2,6-difluoro-3,5-dimethoxyphenyl)-3′-oxo-2′,3′-dihydro-1′H-spiro[cyclopropane-1,4′-[2,7]naphthyridine]-6′-yl)-6-methylpyridin-3-yl)acrylamide]
>100 | >100 | >100 | < 10 | > 200 | > 200 | > 200 | >100 | >100 | >100 | < 10 | > 200 | > 200 | > 200 |  |  |  |  | C=CC(=O)Nc1cc(-c2cc3c(cn2)CN(c2c(F)c(OC)cc(OC)c2F)C(=O)C32CC2)c(C)cc1F [Example 6, N-(5-(2′-(2,6-difluoro-3,5-dimethoxyphenyl)-3′-oxo-2′,3′-dihydro-1′H-spiro[cyclopropane-1,4′-[2,7]naphthyridine]-6′-yl)-2-fluoro-4-methylphenyl)acrylamide]

The next lines start with the compound.

SMILES | FGFR1/FGFR4 IC50 ratio (FGFR4; pre-incubated for 4 hours) | FGFR2/FGFR4 IC50 ratio (FGFR4; pre-incubated for 4 hours) | FGFR3/FGFR4 IC50 ratio (FGFR4; pre-incubated for 4 hours) | IC50 (FGFR4; [1]) [nM] | IC50 (FGFR3; [2]) [nM] | IC50 (FGFR2; [3]) [nM] | IC50 (FGFR1; pre-incubated for 4 hours) [nM] | FGFR1/FGFR4 IC50 ratio (FGFR4; [4]) | FGFR2/FGFR4 IC50 ratio (FGFR4; [4]) | FGFR3/FGFR4 IC50 ratio (FGFR4; [4]) | IC50 (FGFR4; [5]) [nM] | IC50 (FGFR3; [6]) [nM] | IC50 (FGFR2; [7]) [nM] | IC50 (FGFR1; [4]) [nM] | IC50 (FGFR4) [nM] | IC50 (FGFR3; FGFR3 IC50 (nM), pre-incubated for 5 to 10 minutes) [nM] | IC50 (FGFR3; FGFR3 IC50 (nM), pre-incubated for 4 hours) [nM] | IC50 (FGFR2) [nM]
C=CC(=O)Nc1cnn(CCN2CCOCC2)c1-c1cc2c(cn1)CN(c1c(F)c(OC)cc(OC)c1F)C(=O)C21CC1 [Example 19, N-(5-(2′-(2,6-difluoro-3,5-dimethoxyphenyl)-3′-oxo-2′,3′-dihydro-1′H-spiro[cyclopropane-1,4′-[2,7]naphthyridine]-6′-yl)-1-(2-morpholinoethyl)-1H-pyrazol-4-yl)acrylamide] | >100 | >100 | >100 |  | > 200 | > 200 | > 200 |  |  |  |  |  |  |  | 10 to 30 |  |  | 
C=CC(=O)Nc1cn(CC2CCOCC2)nc1-c1cc2c(cn1)CN(c1c(F)c(OC)cc(OC)c1F)C(=O)C21CC1 [Example 35, N-(3-(2′-(2,6-difluoro-3,5-dimethoxyphenyl)-3′-oxo-2′,3′-dihydro-1′H-spiro[cyclopropane-1,4′-[2,7]naphthyridine]-6′-yl)-1-((tetrahydro-2H-pyran-4-yl)methyl)-1H-pyrazol-4-yl)acrylamide] | >100 | >100 | >100 | < 10 | > 200 | > 200 | > 200 |  |  |  |  |  |  |  |  |  |  | 
C=CC(=O)Nc1cc(CN2CCOCC2)cc(-c2cc3c(cn2)CN(c2c(F)c(OC)cc(OC)c2F)C(=O)C32CC2)c1 [Example 11, N-[3-[2′-(2,6-difluoro-3,5-dimethoxyphenyl)-3′-oxo-2′,3′-dihydro-1′H-spiro[cyclopropane-1,4′-[2,7]naphthyridin]-6′-yl]-5-(morpholin-4-ylmethyl)phenyl]acrylamide] | >100 | >100 | >100 | < 10 | > 200 | > 200 | > 200 | >100 | >100 | >100 | < 10 | > 200 | > 200 | > 200 |  |  |  | 
C=CC(=O)Nc1cnn(C[C@H]2CCCO2)c1-c1cc2c(cn1)CN(c1c(F)c(OC)cc(OC)c1F)C(=O)C21CC1 [Example 30, (R)-N-(5-(2′-(2,6-difluoro-3,5-dimethoxyphenyl)-3′-oxo-2′,3′-dihydro-1′H-spiro[cyclopropane-1,4′-[2,7]naphthyridine]-6′-yl)-1-((tetrahydrofuran-2-yl)methyl)-1H-pyrazol-4-yl)acrylamide] | >100 | >100 | >100 | < 10 | > 200 | > 200 | > 200 |  |  |  |  |  |  |  |  |  |  | 
C=CC(=O)Nc1cnn(Cc2ccncc2)c1-c1cc2c(cn1)CN(c1c(F)c(OC)cc(OC)c1F)C(=O)C21CC1 [Example 21, N-(5-(2′-(2,6-difluoro-3,5-dimethoxyphenyl)-3′-oxo-2′,3′-dihydro-1′H-spiro[cyclopropane-1,4′-[2,7]naphthyridine]-6′-yl)-1-(pyridin-4-ylmethyl)-1H-pyrazol-4-yl)acrylamide] | >100 | >50 | >100 | < 10 | > 200 | > 200 | > 200 |  |  |  |  |  |  |  |  |  |  | 
C=CC(=O)N1CCCC(c2cc3c(cn2)CN(c2c(F)c(OC)cc(OC)c2F)C(=O)C32CC2)C1 (centres unmarked) [Example 8, 6′-(1-acryloylpiperidin-3-yl)-2′-(2,6-difluoro-3,5-dimethoxyphenyl)-1′H-spiro[cyclopropane-1,4′-[2,7]naphthyridin]-3′(2′H)-one] | >10 | >2 | >2 |  | > 200 | > 200 | > 200 | >5 | >1 | >1 | > 200 | > 200 | > 200 | > 200 | 30 to 200 |  |  | 
C=CC(=O)Nc1cc(-c2cc3c(cn2)CN(c2c(F)c(OC)cc(OC)c2F)C(=O)C32CC2)ccc1CN1CCOCC1 [Example 12, N-(5-(2′-(2,6-difluoro-3,5-dimethoxyphenyl)-3′-oxo-2′,3′-dihydro-1′H-spiro[cyclopropane-1,4′-[2,7]naphthyridine]-6′-yl)-2-(morpholinomethyl)phenyl)acrylamide] | >100 | >25 | >10 | < 10 |  |  | > 200 | >10 | >1 | >1 | < 10 |  | 30 to 200 | > 200 |  | 30 to 200 | 10 to 30 | 30 to 200
